Laboratory results: patent publication US12681018B2, “Photoactive fluorescent compounds and use thereof for labeling of proteins” (EIKON THERAPEUTICS, INC., priority 2021, dated 2026)
Like-named read-outs stand apart in the source and are kept apart here.

Molecular target: T1, Estrogen Receptor-HaloTag (ER-Halo) fusion (Rhodococcus rhodochrous, UniProt P0A3G2, A155T/A167V/A172T/A224E/C128F/C176G/D78G/E160K/E257K/H272N/K175M/K195N/L47V/L88M/N227D/P291S/S58T/T264A/Y273L/Y87F)
T1 construct: expressed in transfected cells; host or cells: U2OS
Type: cell-based
Settings: tracks in WT U2OS cells, ratio with PA-JF549 in the numerator, 100 nM, 1 hr
Experimental: Using the methods described in Tables 4a and 4b above, labelling specificity of the compound of Examples 1-24 was measured and compared to PA-JF549. U2OS cells wild type or expressing ER-HaloTag fusion were incubated with PA-JF549 or Examples 1-24 for 1 hr. […] Labeling specificity, as measured by the fold reduction in nonspecific labeling of WT cells, was calculated by number of tracks measured in WT cells for Examples 1-24 compared to the number of tracks in WT cells for PA-JF549, expressed as the ratio with PA-JF549 in the numerator.

T1 sequence (P03372 whole entry, the tested form may be a part): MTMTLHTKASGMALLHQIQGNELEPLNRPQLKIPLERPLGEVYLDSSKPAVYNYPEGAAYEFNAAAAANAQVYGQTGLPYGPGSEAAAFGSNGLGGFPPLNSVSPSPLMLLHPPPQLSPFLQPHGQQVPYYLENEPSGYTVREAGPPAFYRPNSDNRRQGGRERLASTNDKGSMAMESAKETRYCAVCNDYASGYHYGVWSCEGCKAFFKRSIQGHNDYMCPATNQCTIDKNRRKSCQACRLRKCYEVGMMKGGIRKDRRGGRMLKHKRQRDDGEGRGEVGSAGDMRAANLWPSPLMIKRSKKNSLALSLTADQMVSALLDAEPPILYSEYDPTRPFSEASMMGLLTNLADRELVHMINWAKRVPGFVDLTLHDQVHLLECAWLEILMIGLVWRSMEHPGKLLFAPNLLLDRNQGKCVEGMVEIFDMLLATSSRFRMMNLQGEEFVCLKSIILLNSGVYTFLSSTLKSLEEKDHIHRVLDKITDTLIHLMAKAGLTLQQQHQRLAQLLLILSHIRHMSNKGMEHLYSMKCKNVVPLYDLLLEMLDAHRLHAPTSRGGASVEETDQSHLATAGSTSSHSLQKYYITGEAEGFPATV
T1 sequence (P0A3G2 other isoform, or with tags, fused parts or gaps with the stated changes): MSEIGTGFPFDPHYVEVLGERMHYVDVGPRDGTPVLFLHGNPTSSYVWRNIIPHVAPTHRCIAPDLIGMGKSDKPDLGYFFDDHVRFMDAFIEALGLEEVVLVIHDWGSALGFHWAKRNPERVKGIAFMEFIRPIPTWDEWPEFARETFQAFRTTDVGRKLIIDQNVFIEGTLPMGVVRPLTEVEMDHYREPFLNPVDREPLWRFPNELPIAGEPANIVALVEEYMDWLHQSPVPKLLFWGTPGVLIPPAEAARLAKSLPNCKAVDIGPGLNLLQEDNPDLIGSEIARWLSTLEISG

Compound	Fold reduction in nonspecific labeling (Table 4b)	Fold reduction in nonspecific labeling (Table 4a)
1,1′-(6-((2-(2-((6-chlorohexyl)oxy)ethoxy)ethyl)carbamoyl)-2-diazo-3-oxo-2,3-dihydrospiro[indene-1,9′-xanthene]-3′,6′-diyl)bis(azetidine-3-carboxamide [Example 20]	>10	–
3′,6′-di(azetidin-1-yl)-6-((2-(2-((6-chlorohexyl)oxy)ethoxy)ethyl)amino)-3H-spiro[isobenzofuran-1,9′-xanthen]-3-one [Example 21]	5-10	–
CN(C)C(=O)C1CN(c2ccc3c(c2)Oc2cc(N4CC(C(=O)N(C)C)C4)ccc2C32C(=[N+]=[N-])C(=O)c3ccc(C(=O)NCc4ccc(COc5nc(N)nc6nc[nH]c56)cc4)cc32)C1 [Example 5]	>10	>10
COC(=O)[C@H]1CCN1c1ccc2c(c1)Oc1cc(N3CC[C@@H]3C(=O)OC)ccc1C21C(=[N+]=[N-])C(=O)c2ccc(C(=O)NCCOCCOCCCCCCCl)cc21 [Example 6]	1-5	1-5
[N-]=[N+]=C1C(=O)c2ccc(C(=O)NCCOCCOCCCCCCCl)cc2C12c1ccc(N3CC(O)C3)cc1Oc1cc(N3CC(O)C3)ccc12 [Example 7, N-(2-(2-((6-chlorohexyl)oxy)ethoxy)ethyl)-2-diazo-3′,6′-bis(3-hydroxyazetidin-1-yl)-3-oxo-2,3-dihydrospiro[indene-1,9′-xanthene]-6-carboxamide]	>10	>10
CN(CCOCCOCCCCCCCl)C(=O)c1ccc2c(c1)C1(C(=[N+]=[N-])C2=O)c2ccc(N3CCC3)cc2Oc2cc(N3CCC3)ccc21 [Example 8, 3′,6′-di(azetidin-1-yl)-N-(2-(2-((6-chlorohexyl)oxy)ethoxy)ethyl)-2-diazo-N-methyl-3-oxo-2,3-dihydrospiro[indene-1,9′-xanthene]-6-carboxamide]	5-10	5-10
[N-]=[N+]=C1C(=O)c2ccc(C(=O)NCCOCCOCCCCCCCl)cc2C12c1ccc(N3CC(C(=O)N4CCOCC4)C3)cc1Oc1cc(N3CC(C(=O)N4CCOCC4)C3)ccc12 [Example 9, N-(2-(2-((6-chlorohexyl)oxy)ethoxy)ethyl)-2-diazo-3′,6′-bis(3-(morpholine-4-carbonyl)azetidin-1-yl)-3-oxo-2,3-dihydrospiro[indene-1,9′-xanthene]-6-carboxamide]	>10	>10
[N-]=[N+]=C1C(=O)c2ccc(C(=O)NCCOCCOCCCCCCCl)cc2C12c1ccc(N3CC(C(=O)N4CCCC4)C3)cc1Oc1cc(N3CC(C(=O)N4CCCC4)C3)ccc12 [Example 10, N-(2-(2-((6-chlorohexyl)oxy)ethoxy)ethyl)-2-diazo-3-oxo-3′,6′-bis(3-(pyrrolidine-1-carbonyl)azetidin-1-yl)-2,3-dihydrospiro[indene-1,9′-xanthene]-6-carboxamide]	5-10	5-10
CN1CCN(C(=O)C2CN(c3ccc4c(c3)Oc3cc(N5CC(C(=O)N6CCN(C)CC6)C5)ccc3C43C(=[N+]=[N-])C(=O)c4ccc(C(=O)NCCOCCOCCCCCCCl)cc43)C2)CC1 [Example 11, N-(2-(2-((6-chlorohexyl)oxy)ethoxy)ethyl)-2-diazo-3′,6′-bis(3-(4-methylpiperazine-1-carbonyl)azetidin-1-yl)-3-oxo-2,3-dihydrospiro[indene-1,9′-xanthene]-6-carboxamide]	1-5	1-5
CNC(=O)C1CN(c2ccc3c(c2)Oc2cc(N4CC(C(=O)NC)C4)ccc2C32C(=[N+]=[N-])C(=O)c3ccc(C(=O)NCCOCCOCCCCCCCl)cc32)C1 [Example 12, 1,1′-(6-((2-(2-((6-chlorohexyl)oxy)ethoxy)ethyl)carbamoyl)-2-diazo-3-oxo-2,3-dihydrospiro[indene-1,9′-xanthene]-3′,6′-diyl)bis(N-methylazetidine-3-carboxamide)]	>10	>10
CN(C)C1CN(c2ccc3c(c2)Oc2cc(N4CC(N(C)C)C4)ccc2C32C(=[N+]=[N-])C(=O)c3ccc(C(=O)NCCOCCOCCCCCCCl)cc32)C1 [Example 13, N-(2-(2-((6-chlorohexyl)oxy)ethoxy)ethyl)-2-diazo-3′,6′-bis(3-(dimethylamino)azetidin-1-yl)-3-oxo-2,3-dihydrospiro[indene-1,9′-xanthene]-6-carboxamide]	5-10	5-10
CN(C)C(=O)[C@@H]1CCN1c1ccc2c(c1)Oc1cc(N3CC[C@H]3C(=O)N(C)C)ccc1C21C(=[N+]=[N-])C(=O)c2ccc(C(=O)NCCOCCOCCCCCCCl)cc21 [Example 14, (2S,2'S)-1,1′-(6-((2-(2-((6-chlorohexyl)oxy)ethoxy)ethyl)carbamoyl)-2-diazo-3-oxo-2,3-dihydrospiro[indene-1,9′-xanthene]-3′,6′-diyl)bis(N,N-dimethylazetidine-2-carboxamide)]	>10	>10
[N-]=[N+]=C1C(=O)c2ccc(C(=O)NCCOCCOCCCCCCCl)cc2C12c1ccc(N3CC[C@@H]3CO)cc1Oc1cc(N3CC[C@@H]3CO)ccc12 [Example 15, N-(2-(2-((6-chlorohexyl)oxy)ethoxy)ethyl)-2-diazo-3′,6′-bis((R)-2-(hydroxymethyl)azetidin-1-yl)-3-oxo-2,3-dihydrospiro[indene-1,9′-xanthene]-6-carboxamide]	5-10	5-10
CN(C)C(=O)[C@H]1CCN(c2ccc3c(c2)Oc2cc(N4CC[C@H](C(=O)N(C)C)C4)ccc2C32C(=[N+]=[N-])C(=O)c3ccc(C(=O)NCCOCCOCCCCCCCl)cc32)C1 [Example 16, (3S,3′S)-1,1′-(6-((2-(2-((6-chlorohexyl)oxy)ethoxy)ethyl)carbamoyl)-2-diazo-3-oxo-2,3-dihydrospiro[indene-1,9′-xanthene]-3′,6′-diyl)bis(N,N-dimethylpyrrolidine-3-carboxamide)]	5-10	5-10
[N-]=[N+]=C1C(=O)c2ccc(C(=O)NCCOCCOCCCCCCCl)cc2C12c1ccc(N3C4COCC3C4)cc1Oc1cc(N3C4COCC3C4)ccc12 (stereo not shown) [Example 17, 3′,6′-di(3-oxa-6-azabicyclo[3.1.1]heptan-6-yl)-N-(2-(2-((6-chlorohexyl)oxy)ethoxy)ethyl)-2-diazo-3-oxo-2,3-dihydrospiro[indene-1,9′-xanthene]-6-carboxamide]	1-5	1-5
CN1CC2CC(C1)N2c1ccc2c(c1)Oc1cc(N3C4CC3CN(C)C4)ccc1C21C(=[N+]=[N-])C(=O)c2ccc(C(=O)NCCOCCOCCCCCCCl)cc21 (stereo not shown) [Example 18, N-(2-(2-((6-chlorohexyl)oxy)ethoxy)ethyl)-2-diazo-3′,6′-bis(3-methyl-3,6-diazabicyclo[3.1.1]heptan-6-yl)-3-oxo-2,3-dihydrospiro[indene-1,9′-xanthene]-6-carboxamide]	>10	>10
CN(C)C(=O)C1CN(c2ccc3c(c2)[Si](C)(C)c2cc(N4CC(C(=O)N(C)C)C4)ccc2C32C(=[N+]=[N-])C(=O)c3ccc(C(=O)NCCOCCOCCCCCCCl)cc32)C1 [Example 19]	>10	–
[N-]=[N+]=C1C(=O)c2ccc(NC(=O)CCOCCOCCCCCCCl)cc2C12c1ccc(N3CCC3)cc1Oc1cc(N3CCC3)ccc12 [Example 22, 3-(2-((6-chlorohexyl)oxy)ethoxy)-N-(3′,6′-di(azetidin-1-yl)-2-diazo-3-oxo-2,3-dihydrospiro[indene-1,9′-xanthen]-6-yl)propanamide]	5-10	–
[N-]=[N+]=C1C(=O)c2ccc(CCCCOCCOCCCCCCCl)cc2C12c1ccc(N3CCC3)cc1Oc1cc(N3CCC3)ccc12 [Example 24, 3′,6′-di(azetidin-1-yl)-6-(4-(2-((6-chlorohexyl)oxy)ethoxy)butyl)-2-diazospiro[indene-1,9′-xanthen]-3(2H)-one]	1-5	–
(E)-3′,6′-di(azetidin-1-yl)-6-(4-(2-((6-chlorohexyl)oxy)ethoxy)but-1-en-1-yl)-2-diazospiro[indene-1,9′-xanthen]-3(2H)-one and (Z)-3′,6′-di(azetidin-1-yl)-6-(4-(2-((6-chlorohexyl)oxy)ethoxy)but-1-en-1-yl)-2-diazospiro[indene-1,9′-xanthen]-3(2H)-one [Example 23]	>10	–
